Activity calls are given as the source filed them. How the calls were made is not given here; tested in parental BL2 cells.

This is an account of results in PubChem BioAssay AID1259333 (Broad Institute, 2017).

The nature of the first experiment: cell cytotoxicity, dose response, cytotoxicity control, CellTiter-Glo (AID 1259333).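 Further: 0% = vehicle neutral controls and -100% = reference inhibitor positive controls.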 The following applies: cytotoxicity, CellTiter-Glo ATP luminescence; at 3.5 µM (top of the series).
As to `C[C@]12CC[C@H](O)C[C@H]1CC[C@@H]1[C@@H]2CC[C@]2(C)[C@@H](c3ccc(=O)oc3)CC[C@]12O`, the activity change, negative = cytotoxicity is 25.8% (inactive).

The same experiment, now with this note: cytotoxicity, CellTiter-Glo ATP luminescence; at 9 µM (top of the series).
For the compound `C[C@@H]1CN([C@H](C)CO)C(=O)c2c(c3ccccc3n2C)-c2ccccc2CO[C@@H]1CN(C)S(=O)(=O)c1ccccc1C#N`, the activity change, negative = cytotoxicity is 42.3% (inactive).

The same experiment, now with this note: cytotoxicity, CellTiter-Glo ATP luminescence; at 10 µM (top of the series).
As for `C[C@H]1CN([C@@H](C)CO)C(=O)Cc2cc(NS(=O)(=O)c3cccs3)ccc2O[C@@H]1CN(C)Cc1ccc(Cl)c(Cl)c1`, the activity change, negative = cytotoxicity was 29.8% (inactive).

`CCc1cnc(N2[C@H](C#N)[C@@H](c3ccccc3C3=CCCC3)[C@@H]2CO)s1`: the activity change, negative = cytotoxicity is -4.08% (inactive). The same measure, in the same setting: then `O=C(C1CC1)N1C[C@@H]2N[C@H](C1)C2c1ccc(-c2cccc(F)c2)cc1` (some centres undefined), with -17.6% (inactive); and `Cc1ccc(-c2ccccc2[C@H]2[C@@H](C#N)N(c3ncc(-c4ccccc4)s3)[C@@H]2CO)cc1`, with 47.4% (inactive); and `Cc1ccc(OC(=O)N(C)C[C@@H]2OCc3ccccc3-c3c(n(C)c4ccccc34)C(=O)N([C@@H](C)CO)C[C@H]2C)cc1`, with 5.02% (inactive). Still for that read-out and setting: then `CCc1csc(N2[C@H](C#N)[C@H](c3ccc(C#Cc4ccc(F)cc4)cc3)[C@H]2CO)n1`, with 30% (inactive). `CC(C)CC#Cc1ccc([C@@H]2[C@H]3CN(C(=O)Nc4ccccc4)CCCCN3[C@H]2CO)cc1`: the activity change, negative = cytotoxicity is 40.2% (inactive). For the compound `N#C[C@@H]1[C@H](c2ccc(C#Cc3ccccc3F)cc2)[C@@H](CO)N1C(=O)C1CC1`, the activity change, negative = cytotoxicity is 38% (inactive). Same read-out and setting: the result for `NC(c1ccccc1)c1csc(NC(=O)Nc2cccc(C(F)(F)F)c2)n1` (centres undefined) reads -26.9% (inactive); that for `CC(C)(C)n1cc(C(=O)c2ccc3ccccc3c2O)cn1`, 24.3% (inactive); that for `COc1cccc(S(=O)(=O)N(C)C[C@H]2OCc3ccccc3-c3c(n(C)c4ccccc34)C(=O)N([C@@H](C)CO)C[C@@H]2C)c1`, 28.3% (inactive).

Regarding `c1ccc(CCSc2nccn2-c2ccccc2)cc1`, the activity change, negative = cytotoxicity was 33.3% (inactive).

Consider `O=C1CC(c2ccc3c(c2)OCO3)Sc2nc3ccccc3n21` (centres undefined), for which the activity change, negative = cytotoxicity is 31.6% (inactive). Still for that read-out and setting: then `CC(OC(=O)c1cc(Br)ccc1O)C(=O)Nc1ccc(S(=O)(=O)N2CCCC2)cc1` (centres undefined), with 47% (inactive). Still for that read-out and setting: then `N#C[C@@H]1[C@@H](c2ccccc2)[C@H](CO)N1C(=O)CN1CCOCC1`, with 77.6% (inactive); and `COc1ccc2c3c(n(C)c2c1)[C@H](CO)N(C(=O)Nc1ccc(F)cc1)CC31CCN(C(=O)Nc2ccc(F)cc2F)CC1`, with 29.2% (inactive). On the same count and under the same terms, then `COc1ccc(C(=O)/C=C/C(=O)N(CC(=O)NC2CCCCC2)Cc2ccc(F)cc2)c(O)c1`, with 46.2% (inactive). For `COc1ccc(C(=O)CCN2CCc3cc(OC)c(OC)cc3C2)cc1`, the activity change, negative = cytotoxicity was 22.2% (inactive).

As to `CCCNC(=O)N1[C@H](CO)[C@H](c2ccc(-c3cccc(OC)c3)cc2)[C@@H]1C#N`, the activity change, negative = cytotoxicity was 27% (inactive). `CC1=CC(=O)c2c(O)cccc2C1=O`: the activity change, negative = cytotoxicity is 112% (inactive). Take `O=C(CNCCO)N1N=C(c2cccs2)CC1c1cccs1` (centres undefined): the activity change, negative = cytotoxicity was 18.9% (inactive).

Take `C[C@@H]1CN([C@@H](C)CO)C(=O)c2ccccc2-c2ccccc2CO[C@@H]1CN(C)C(=O)c1cc(Cl)cc(Cl)c1`: the activity change, negative = cytotoxicity is 38.8% (inactive). `CCCCCCCCCc1ccc(OCCOCCOCCOCCOCCOCCOCCOCCOCCO)cc1`: the activity change, negative = cytotoxicity is 13.3% (inactive). On the same count and under the same terms, then `COc1cc2c(cc1OC)C(=O)C(Br)CC2` (centres undefined), with 112% (inactive); and `O=C(COC(=O)c1ccccc1)c1ccc2c(c1)OCCO2`, with 21.1% (inactive).

As for `COc1ccc(S(=O)(=O)Nc2ccc3c(c2)C(=O)N([C@H](C)CO)C[C@@H](C)[C@@H](CN(C)Cc2ccc(C(F)(F)F)cc2)OCCCC[C@@H](C)O3)cc1`, the activity change, negative = cytotoxicity is 4.86% (inactive). The same measure, in the same setting: then `O=C1C[C@H](c2ccccc2)C(=O)N[C@@H](c2ccccc2)C/C=C\C[C@@H](c2ccccc2)N1`, with 72.2% (inactive). Still for that read-out and setting: then `Cc1ccc(C2(C)NC(=O)N(CC(=O)Nc3cccnc3Cl)C2=O)cc1` (centres undefined), with 21.9% (inactive); and `Cc1ccc2c(c1)C(O)(CC(=O)/C=C/C=C/c1ccccc1)C(=O)N2` (centres undefined), with 24.8% (inactive); and `O=C(Nc1nc2ccccc2s1)c1ccc(OCC2CCCO2)cc1` (centres undefined), with 24.7% (inactive).

Take `COc1ccc(S(=O)(=O)N(C)C[C@@H]2Oc3ccc(NC(=O)Nc4ccc(C(F)(F)F)cc4)cc3C(=O)N([C@H](C)CO)C[C@H]2C)cc1`: the activity change, negative = cytotoxicity is 22.7% (inactive). The same measure, in the same setting: the result for `Oc1cc(O)cc(/C=C/c2ccc(O)c(O)c2)c1` reads 129% (inactive); that for `N#C[C@H]1[C@@H](c2ccc(C#CC3CCCCC3)cc2)[C@H](CO)N1C(=O)Nc1ccc(F)cc1`, 22.4% (inactive); that for `CCCCc1nc2ccccc2[nH]1`, 13.9% (inactive). Turning to `CC(=NNC(=S)N1CC2CCC(CC2)C1)c1nccs1`, the activity change, negative = cytotoxicity is 126% (inactive). On to `COc1cccc(OC)c1OCCNCC1COc2ccccc2O1` (centres undefined), for which the activity change, negative = cytotoxicity was 48.7% (inactive).

Consider `Cc1cccc(-c2ccc(C3[C@@H]4CN(C(=O)Nc5ccc(C(F)(F)F)cc5)C[C@H]3N4)cc2)c1` (some centres undefined), for which the activity change, negative = cytotoxicity was 26.3% (inactive).

As for `Oc1c(Cl)cc(Cl)cc1Sc1cc(Cl)cc(Cl)c1O`, the activity change, negative = cytotoxicity is 11% (inactive). The same measure, in the same setting: then `O=C(Cc1ccccc1)N1CC[C@@H]2[C@H]1c1cc(-c3cccc(F)c3)ccc1N[C@@H]2CO`, with 8.92% (inactive); and `O=c1cc(-c2ccc(O)cc2)oc2ccc3ccccc3c12`, with 20.1% (inactive); and `CC12CC[C@H]3[C@@H](CCC4(O)C[C@H](O)CCC34/C=N/NC(=O)Cc3ccccc3)C1(O)CCC2C1=CC(=O)OC1` (some centres undefined), with 25% (inactive). Same read-out and setting: then `c1ccc(OCCSc2nnc3sc4ccccc4n23)cc1`, with -14.5% (inactive).

With `Cc1ccc(-c2cc(C(=O)N(C)CC(=O)Nc3ccccc3Br)c3ccccc3n2)o1`, the activity change, negative = cytotoxicity is 130% (inactive). Same read-out and setting: the result for `COC1=CC(=O)c2c(ccc3ncnc(N)c23)C1=O` reads 44.6% (inactive); that for `CS(=O)(=O)c1ccc(C(=O)OCC(=O)NC(=O)C2CCCCC2)cc1[N+](=O)[O-]`, 42.9% (inactive). The same measure, in the same setting: then `Cc1ccc(N2CC(C(=O)Nc3nccs3)CC2=O)cc1Cl` (centres undefined), with 22.3% (inactive).

The experiment is the same for the next values; noted with them: cytotoxicity, CellTiter-Glo ATP luminescence; at 11 µM (top of the series).
Take `COc1ccc(-c2ccc([C@H]3[C@@H](C#N)N(C(=O)c4cccc(F)c4)[C@H]3CO)cc2)cc1`: the activity change, negative = cytotoxicity was 24% (inactive).
